Assay [1] concerns the target T1, Substance-K receptor (Mesocricetus auratus, UniProt P51144).
T1 sequence (P51144 whole entry): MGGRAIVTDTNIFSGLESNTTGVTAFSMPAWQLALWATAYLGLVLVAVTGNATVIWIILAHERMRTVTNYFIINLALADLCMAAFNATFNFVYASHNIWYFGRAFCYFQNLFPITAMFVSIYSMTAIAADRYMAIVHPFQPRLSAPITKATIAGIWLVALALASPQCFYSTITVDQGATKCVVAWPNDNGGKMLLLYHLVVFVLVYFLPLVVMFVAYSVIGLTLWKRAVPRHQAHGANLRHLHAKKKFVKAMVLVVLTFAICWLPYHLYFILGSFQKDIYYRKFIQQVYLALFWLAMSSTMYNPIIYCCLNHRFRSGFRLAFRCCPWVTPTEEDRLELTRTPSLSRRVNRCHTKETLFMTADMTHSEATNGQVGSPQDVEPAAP
Description: Binding affinity for NK2 receptor binding sites in membranes prepared from hamster urinary bladder by using [125I]NKA as radioligand.

The subject of assay [2] is CHO. Kind of assay: In vitro inhibition of senktide-evoked increases in intracellular calcium levels in CHO cells using the fluorescent indicator Fura2. Type of assay: functional, Cricetulus griseus.
The species entered for assay [3] is Cavia porcellus. Kind of assay: In vitro inhibition of senktide-induced increases in spontaneous firing of guinea pig habenula neurones. Type of assay: functional.
The target in assay [4] is T2, Neuromedin-K receptor (Cavia porcellus, UniProt P30098).
T2 sequence (P30098 whole entry): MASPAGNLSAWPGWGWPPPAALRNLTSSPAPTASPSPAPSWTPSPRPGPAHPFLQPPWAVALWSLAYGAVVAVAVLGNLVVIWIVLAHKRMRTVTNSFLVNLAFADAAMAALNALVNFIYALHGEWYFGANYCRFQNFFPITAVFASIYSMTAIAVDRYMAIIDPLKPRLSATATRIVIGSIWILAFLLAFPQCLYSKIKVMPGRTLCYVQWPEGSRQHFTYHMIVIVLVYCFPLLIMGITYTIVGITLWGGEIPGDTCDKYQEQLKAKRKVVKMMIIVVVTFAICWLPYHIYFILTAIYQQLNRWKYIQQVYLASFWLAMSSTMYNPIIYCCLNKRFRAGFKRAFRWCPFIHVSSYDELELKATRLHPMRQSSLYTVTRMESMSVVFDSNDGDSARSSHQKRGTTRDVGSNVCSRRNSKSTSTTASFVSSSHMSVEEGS
Kind of assay: Binding affinity for NK3 receptor binding sites in guinea pig cortical membranes by using [125I][MePhe7]-NKB as radioligand. It is filed as cell membranes.

Assay [5] has as its target Substance-P receptor (Homo sapiens, UniProt P25103). Description: Binding affinity for NK1 receptor binding sites in human lymphoma IM9 cells by using [125I]-Bolton-Hunter substance P as radioligand. Type of assay: cell-based, IM-9.
The species entered for assay [6] is Cavia porcellus. Description: In vitro inhibition of Isometric contractions from longitudinal muscle myenteric plexus preparations with responses to the NK3 receptor selective agonist senktide. It is filed as functional.
Assay [7] has as its target T3, Neuromedin-K receptor (Homo sapiens, UniProt P29371).
T3 sequence (P29371 whole entry): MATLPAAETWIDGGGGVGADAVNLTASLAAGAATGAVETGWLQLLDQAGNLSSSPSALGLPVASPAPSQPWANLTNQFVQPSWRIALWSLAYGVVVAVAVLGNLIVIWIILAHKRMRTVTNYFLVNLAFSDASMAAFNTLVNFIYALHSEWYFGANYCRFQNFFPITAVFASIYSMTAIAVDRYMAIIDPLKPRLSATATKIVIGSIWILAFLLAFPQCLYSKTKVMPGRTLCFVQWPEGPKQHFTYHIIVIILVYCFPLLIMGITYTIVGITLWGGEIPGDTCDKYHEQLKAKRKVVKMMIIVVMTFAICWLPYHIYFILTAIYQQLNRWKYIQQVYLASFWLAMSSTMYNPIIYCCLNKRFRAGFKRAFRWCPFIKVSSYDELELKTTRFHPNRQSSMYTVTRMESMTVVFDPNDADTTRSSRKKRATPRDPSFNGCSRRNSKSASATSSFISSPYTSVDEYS
Description: Displacement of [125I][MePhe]-NKB from human NK3 receptor expressed in CHO cells. It is filed as cell-based.

Our source for the IC50 and Ke values is ChEMBL document CHEMBL1127709, “The rational development of small molecule tachykinin NK3 receptor selective antagonists - the utilisation of a dipeptide chemical library in drug design” (Bioorg Med Chem Lett, 1994).

Substance-P receptor, sequence (P25103 whole entry): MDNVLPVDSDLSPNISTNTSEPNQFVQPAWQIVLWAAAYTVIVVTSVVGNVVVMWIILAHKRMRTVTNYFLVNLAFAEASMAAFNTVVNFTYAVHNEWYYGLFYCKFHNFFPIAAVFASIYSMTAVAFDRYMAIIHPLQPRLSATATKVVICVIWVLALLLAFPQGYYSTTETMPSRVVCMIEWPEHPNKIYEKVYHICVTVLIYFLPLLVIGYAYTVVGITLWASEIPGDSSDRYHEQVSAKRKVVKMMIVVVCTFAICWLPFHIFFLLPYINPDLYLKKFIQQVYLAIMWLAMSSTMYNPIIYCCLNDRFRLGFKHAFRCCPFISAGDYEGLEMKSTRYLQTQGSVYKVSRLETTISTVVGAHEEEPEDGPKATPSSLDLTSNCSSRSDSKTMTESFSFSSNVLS

What is called IC50 is the concentration that inhibits the measured activity by half. A high value points to a need for much substance. Regarding `CC(C)(C)OC(=O)N[C@@](C)(Cc1ccccc1)C(=O)N[C@H](Cc1ccccc1)C(=O)NCCCCCCCCC(N)=O`, the IC50 was 5.02 µM in assay [1], 0.015 µM in assay [4] and 10 µM in assay [5]. Besides, the Ke in assay [2] amounted to 15 nM; in assay [3] it was 25 nM; in assay [6] it was 13 nM.

In assay [5], `CC(C)(C)OC(=O)N[C@@](C)(Cc1ccccc1)C(=O)N[C@H](Cc1ccccc1)C(=O)NCCCCCCCCO` registered an IC50 of 10 µM.

Consider `CC(C)(C)OC(=O)N[C@@H](Cc1ccccc1)C(=O)N[C@](C)(Cc1ccccc1)C(=O)NCCCCCCCNC(N)=O`, for which, in assay [2], the Ke was 7 nM.

In turn, `COCCCCCCCCNC(=O)C(Cc1ccccc1)NC(=O)[C@](C)(Cc1ccccc1)NC(=O)OC(C)(C)C` (some centres undefined) registered an IC50 in assay [7] of 0.102 µM.
